These are literature values, as cited in patent publication EP3137069B1, “NANOPARTICLE FORMULATION CONTAINING FARNESYLTHIOSALICYLIC ACID (SALIRASIB)” (Pehlivan, Sibel, priority 2014, dated 2015).

Structures are written as SMILES. In brackets after ≈: the same amount, converted by molar mass.

Turning to `CC(C)=CCCC(C)=CCCC(C)=CCSc1ccccc1C(=O)O` [FTA, Farnesylthiosalicylic acid], under “organic solvents like ethanol, DMSO and dimethylformamide”, the “solubility in organic solvents” value is listed as 20 mg/mL (≈ 55.8 mM). Also, the solubility in water result (water) was “insoluble”.
